According to US11034725B2, “Compositions and methods for treating cardiovascular disease” (Genentech, Inc., priority 2016, dated 2021):
Like-named read-outs stand apart in the source and are kept apart here. Bridge positions count the residues as written; N and C are the ends. Square brackets hold non-standard residues; d marks the D form. Peptide text beside a SMILES is read from it. hArg = N=C(N)NCCCC[C@H](N)C(=O)O

Columns and labels:
[1] = molecular target: T1, PCSK9 (Homo sapiens, UniProt Q8NBP7); assay: PCSK9/EGF(A) TR-FRET binding assay
[2] = molecular target: T1, PCSK9; assay: PCSK9/LDLR-Fc TR-FRET assay (LDLR assay); format: binding; details: Table 11, LDLR-Fc, average ±S.D. of three experiments
Procedure: In black 1536-well assay plates (MaKO, Aurora® Microplates, Whitefish, Mont.), 40 nL of peptide in DMSO were preincubated with 2 μL His-tagged PCSK9 plus anti-His-allophycocyanin in assay buffer (50 mM Tris-HCl, pH 7.5, 150 mM NaCl, 2 mM CaCl2, 0.01% Tween®-20, 0.1% bovine gamma globulins, and protease inhibitor cocktail) for 30 min. Then 2 μL of Fc-tagged ligand and anti-Fc-europium in assay buffer were added and allowed to incubate for 2 h. The PCSK9 and ligand conditions for each assay are as follows: 10 nM C-terminal (His)8-tagged PCSK9 (“(His)8” disclosed as SEQ ID NO: 304) and 12 nM EGF(A)-Fc for the EGF(A) assay, 10 nM C-terminal (His)8-tagged PCSK9 (“(His)8” disclosed as SEQ ID NO: 304) and 2.5 nM LDLR-Fc for the LDLR assay, 1.25 nM C-terminal (His)8-tagged PCSK9Δhelix (“(His)8” disclosed as SEQ ID NO: 304) and 0.75 nM Ab20 for the Ab20 assay, and 2 nM His-EGF(A)-Fc alone for the counterscreen. In all assays, anti-His-allophycocyanin and anti-Fc-europium were used at 20 nM and 2 nM, respectively. Fluorescence was measured with excitation at 340 nm and emission at 671 nm and 618 nm. The TR-FRET ratio was calculated as fluorescence at 671 nm/fluorescence at 618 nm. The ratios were normalized to controls and plotted against peptide concentration to determine IC50 values (Screener Analyzer, Genedata, Basel, CH). The peptides were evaluated in three separate experiments per assay with 10-point titrations and n=2 per concentration. The values presented are the average ±S.D. of three independent experiments.

[3] = molecular target: T2, PCSK9Δhelix (Homo sapiens, UniProt Q8NBP7); assay: SPR affinity measurements of peptide binding (Example 8); details: for Kd: Table 10, binding to PCSK9Δhelix
T2 construct: Human PCSK9 construct M1-Q692 with an engineered TEV site (residue deletion Y166, R167); made in house; host or cells: CHO
Procedure: A Biacore™ T100 or Biacore™ 8K was adjusted to 20° C. The system was primed into assay buffer which consisted of 25 mM HEPES, pH 7.5, 0.15 M NaCl, 0.005% (v/v) Tween® 20, 0.2 mM tris(2-carboxyethyl)phosphine and optionally contained 0.1% (w/v) carboxymethylated dextran (average MW 10 kDa) and 0.2% (w/v) PEG (average MW 3450 Da) in order to reduce potential non-specific binding. Peptides were assayed by capturing fresh PCSK9 or PCSK9Δhelix after each binding regeneration cycle by exploiting a histidine tag and an NTA-sensor chip. The surface was charged with (His)8-tagged PCSK9 (approximately 800 RU captured). […] Compound 19 and Compound 20 were assayed in six serial two-fold dilutions from 100 nM to 3.1 nM. All peptides were analyzed in duplicate by serial injection (50 μL/min for 1 min) of peptide dilution from low to high concentration. The surface was then stripped of target by injecting 0.5 M EDTA, pH 8.0. This sequence was repeated for each peptide binding cycle and blank control cycles.
All SPR data was recorded in duplicate for five, or more serial dilutions, except for the two fusion peptides, which produced extremely low fitting error. Multicycle data (i.e. separate curves for each concentration) and single cycle data (i.e. single curve with serial injection of each concentration) were double referenced and fitted to an interaction model using BIAevaluation software. Peptide binding to PCSK9 produced deviations from a simple 1:1 binding interaction model that required application of a two-state model for determination of Kd while interactions with PCSK9Δhelix conformed well to simple 1:1 binding. Kinetic curvature was poorly defined for rapidly dissociating peptides and in these cases Kd was estimated from a steady-state dose response plot. Kd values were reported with associated standard error, a measure of confidence in that parameter value.

[4] = molecular target: T2, PCSK9Δhelix; assay: PCSK9Δhelix/Ab20 TR-FRET binding assay
[5] = tested on: His-EGF(A)-Fc; assay: His-EGF(A)-Fc TR-FRET counterscreen
[6] = molecular target: T1, PCSK9; assay: Phage competition ELISA; format: binding
Procedure: The sequences of selected clones were fused to the N-terminus of M13 major coat protein (p8) using Kunkel mutagenesis method (Kunkel et al., Methods Enzymol 154, 367-82). The resulting construct was transformed to E. Coli. XL1 blue, single colony was grown in 1 mL 2YT supplemented with 50 μg/mL carbenicillin, 10 μg/mL Tetracycline and M13 KO7 helper phage at 37° C. for 2 h, Kanamycin was added to final concentration of 25 μg/mL, growth was continued at 37° C. for 6 h. The culture was transferred to 30 mL 2YT supplemented with 50 μg/mL carbenicillin and 25 μg/mL kanamycin and grown at 37° C. overnight. The next day, the phage was harvested and purified using the standard protocol (Tonikian et al. Nat Protoc. 2007; 2(6):1368-86). The serially diluted phage solution was applied to the biotinylated PCSK9 and biotinylated PCSK9Δhelix that had been immobilized for 15 min on a 384-well MaxiSorp ImmunoPlate previously coated with 5 μg/mL NeutrAvidin and blocked with Block buffer. The plate was incubated at 4° C. for 1 h, washed 10 times with PT buffer (PBS, 0.05% Tween® 20). The bound phage was detected with anti-M13-HRP and the ELISA signal was read at OD450 nm. The background was ELISA signal that the phage directly bound to NeutrAvidin-coated plate. The data was plotted and the curve fitted with KaleidaGraph. Sub-saturating phage concentration that gave 80% of maximum binding signal was determined by the binding curve.
IC50 measurements were performed by mixing a fixed sub-saturating concentration of peptide-displaying phage with a serial dilution of synthetic peptides in PBT buffer. The mixture was added to plates coated with PCSK9 and PCSK9Δhelix and incubated for 1 h at room temperature. The plates were then washed 10 times with PBT buffer and the bound phage was detected by anti-M13-HRP. The data was plotted, curve fitted and IC50 derived by use of KaleidaGraph. All measurements were repeated 3 times independently.

[7] = molecular target: T2, PCSK9Δhelix; assay: Surface plasmon resonance biosensor-based affinity analysis (Example 4); format: binding; details: Table 7, Target PCSK9Δhelix, SPR at 20° C.; read-out: Kd
[8] = TR-FRET, Table 8E, additional compounds, read-out: PCSK9/EGF(A) IC50
[9] = Table 11, average ±S.D. of three experiments, read-out: EGF(A) IC50
[10] = TR-FRET, Table 8E, additional compounds, read-out: PCSK9Δhelix/Ab20 IC50
[11] = Table 11, average ±S.D. of three experiments, read-out: Ab20 IC50
[12] = TR-FRET counterscreen, Table 8E, additional compounds
[13] = TR-FRET, Example 7, read-out: PCSK9/EGF(A) IC50
[14] = TR-FRET, Example 7, read-out: PCSK9Δhelix/Ab20 IC50
[15] = Table 10, average ±S.D. of three experiments, read-out: Ab20 IC50

## CC[C@H](C)[C@H](NC(=O)[C@H](CCCCNC(=N)N)NC(=O)[C@@H](NC(=O)[C@H](CC(C)C)NC(=O)[C@H](CC(N)=O)NC(=O)[C@H](Cc1c[nH]c2ccccc12)NC(C)=O)C(C)C)C(=O)NCC(=O)N[C@@H](CC(C)C)C(=O)N[C@@H](CC(C)C)C(=O)N[C@@H](CCCNC(=N)N)C(N)=O [Compound 192, Ac-WNLV(homoR)IGLLR-NH2] (Ac-WNLV[hArg]IGLLR-NH2)
[1]; [8]
  IC50: ≥ 50 µM
[1]; [9]
  IC50: > 50 µM
[2]
  IC50: > 50 µM
[3]
  Kd: 1 µM
[3]; Table 10, versus Compound 53
  improvement of binding affinity by homo-arginine substitution: 14 fold
[4]; [10]
  IC50: 5.3 µM
[4]; [11]
  IC50: 5.55 ± 0.36 µM
[5]; [12]
  IC50: ≥ 50 µM

## CC[C@H](C)[C@H](NC(=O)[C@H](CCCCNC(=N)N)NC(=O)[C@@H](NC(=O)[C@H](CC(C)C)NC(=O)[C@H](CC(N)=O)NC(=O)[C@H](Cc1c[nH]c2ccccc12)NC(=O)CNC(=O)[C@@H]1CCCN1C(=O)[C@H](Cc1ccccc1)NC(=O)[C@H](CO)NC(=O)[C@H](CCC(=O)O)NC(C)=O)C(C)C)C(=O)NCC(=O)N[C@@H](CC(C)C)C(=O)N[C@@H](CC(C)C)C(=O)N[C@@H](CCCNC(=N)N)C(N)=O [Compound 227] (Ac-ESFPGWNLV[hArg]IGLLR-NH2)
[1]; [8]
  IC50: 2.5 µM
[1]; Table 11
  lower inhibitory activity versus Compound 229: approximately 3 fold
[1]; [9]
  IC50: 23.2 ± 0.3 µM
[2]
  IC50: > 50 µM
[4]; [10]
  IC50: 24 µM
[4]; [11]
  IC50: 2.51 ± 0.11 µM
[5]; [12]
  IC50: ≥ 50 µM

## CC[C@H](C)[C@H](NC(=O)[C@H](CCCCNC(=N)N)NC(=O)[C@@H](NC(=O)[C@H](CC(C)C)NC(=O)[C@H](CC(N)=O)NC(=O)[C@H](Cc1c[nH]c2ccccc12)NC(=O)CNC(=O)[C@@H]1CCCN1C(=O)[C@H](Cc1ccc(O)cc1)NC(=O)[C@H](CO)NC(=O)[C@H](CC(=O)O)NC(C)=O)C(C)C)C(=O)NCC(=O)N[C@@H](CC(C)C)C(=O)N[C@@H](CC(C)C)C(=O)N[C@@H](CCCNC(=N)N)C(N)=O [Compound 230] (Ac-DSYPGWNLV[hArg]IGLLR-NH2)
[1]; [8]
  IC50: 2.3 µM
[1]; [9]
  IC50: 24.2 ± 0.8 µM
[2]
  IC50: > 50 µM
[4]; [10]
  IC50: 24 µM
[4]; [11]
  IC50: 2.42 ± 0.2 µM
[5]; [12]
  IC50: ≥ 50 µM

## CC[C@H](C)[C@H](NC(=O)[C@H](CCCCNC(=N)N)NC(=O)[C@@H](NC(=O)[C@H](CC(C)C)NC(=O)[C@H](CC(N)=O)NC(=O)[C@H](Cc1c[nH]c2ccccc12)NC(=O)CNC(=O)[C@@H]1CCCN1C(=O)[C@H](Cc1ccc(O)cc1)NC(=O)[C@H](CO)NC(=O)[C@H](CCC(=O)O)NC(C)=O)C(C)C)C(=O)NCC(=O)N[C@@H](CC(C)C)C(=O)N[C@@H](CC(C)C)C(=O)N[C@@H](CCCNC(=N)N)C(N)=O [Compound 231] (Ac-ESYPGWNLV[hArg]IGLLR-NH2)
[1]; [8]
  IC50: 1.6 µM
[1]; [9]
  IC50: 15.8 ± 0.1 µM
[2]
  IC50: > 50 µM
[4]; [10]
  IC50: 17 µM
[4]; [11]
  IC50: 1.49 ± 0.1 µM
[5]; [12]
  IC50: ≥ 50 µM

## CC[C@H](C)[C@@H]1NC(=O)[C@H](CCCNC(=N)N)NC(=O)[C@H](CCC(N)=O)NC(=O)[C@H](CC(C)C)NC(=O)[C@H](CC(N)=O)NC(=O)[C@H](Cc2c[nH]c3ccccc23)NC(=O)[C@@H]2CCCN2C(=O)[C@H]([C@@H](C)CC)NC(=O)[C@H](Cc2ccccc2)NC(=O)[C@@H](NC(=O)CNC(=O)[C@@H](N)CO)CSSC[C@@H](C(N)=O)NC(=O)[C@H](CC(C)C)NC(=O)[C@H](CC(C)C)NC(=O)CNC1=O [Compound K9gvpep1] (H-SGCFIPWNLQRIGLLC-NH2; disulfide 3-16)
[6]
  competition with binding of phage-displayed Pep2-8 to PCSK9: did not compete

## CC[C@H](C)[C@@H]1NC(=O)[C@H](CCCNC(=N)N)NC(=O)[C@H](CCC(N)=O)NC(=O)[C@H](CC(C)C)NC(=O)[C@H](CC(N)=O)NC(=O)[C@H](Cc2c[nH]c3ccccc23)NC(=O)[C@@H]2CCCN2C(=O)[C@H](CC(C)C)NC(=O)[C@H](CCCNC(=N)N)NC(=O)[C@@H](NC(=O)CNC(=O)[C@@H](N)CO)CSSC[C@@H](C(N)=O)NC(=O)[C@@H]2CCCN2C(=O)[C@H](CC(C)C)NC(=O)CNC1=O [Compound K9gvpep4] (H-SGCRLPWNLQRIGLPC-NH2; disulfide 3-16)
[6]
  competition with binding of phage-displayed Pep2-8 to PCSK9: did not compete

## Ac-MPWNLVRIGLLR-NH2 [Compound 51]
[1]; [13]
  IC50: > 50 µM
[3]
  Kd: 1.4 µM
[7]
  Kd: 2.7 µM
[4]; [14]
  IC50: 4.69 µM
[4]; [15]
  IC50: 6.6 ± 0.3 µM
[5]; counterscreen, Example 7
  IC50: > 50 µM

## Ac-WNLVRIGLLR-NH2 [Compound 53]
[1]; [13]
  IC50: > 50 µM
[3]
  Kd: 14 µM
[3]; Table 10, elimination of Pro4
  reduction of binding affinity: 10 fold
[7]
  Kd: 33.8 µM
[4]; [14]
  IC50: 33.1 µM
[4]; [15]
  IC50: 52.4 ± 3.4 µM
[5]; counterscreen, Example 7
  IC50: > 50 µM
